Test results reported in the supplement of paper PMC10307832.

Assays:
Experiment in all cases: relative viability (nuclei count vs DMSO), 5 days (fraction); higher = more cells survive
[1] = test system: NCI-H1437
How it was run: (§1)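 Lung cancer cell lines were pin-tool dosed in 1536-well plates on the day after seeding, with either a lone drug or a fixed anchor-drug dose plus five library-drug doses (not always all listed) in √10 steps. Nuclei were counted on 4× images after 5 days. Relative viability is the ratio of treated-well to vehicle-well nuclei counts, with each value a median of duplicate plates.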

[2] = test system: NCI-H2009
How it was run: as §1

[3] = test system: SW 1573
How it was run: as §1

[4] = test system: HCC-366
How it was run: as §1

[5] = test system: NCI-H727
How it was run: as §1

[6] = test system: NCI-H23
How it was run: as §1

[7] = test system: NCI-H2228
How it was run: as §1

[8] = test system: HCC-827
How it was run: as §1

[9] = test system: CAL-12T
How it was run: as §1

[10] = test system: LCLC-103H
How it was run: as §1

[11] = test system: HOP-62
How it was run: as §1

[12] = test system: NCI-H460
How it was run: as §1

[13] = test system: NCI-H1355
How it was run: as §1

[14] = test system: EMC-BAC-2
How it was run: as §1

[15] = test system: COR-L 105
How it was run: as §1

[16] = test system: NCI-H1792
How it was run: as §1

[17] = test system: HARA
How it was run: as §1

[18] = test system: NCI-H1975
How it was run: as §1

[19] = test system: NCI-H1915
How it was run: as §1

[20] = test system: NCI-H1755
How it was run: as §1

[21] = test system: SK-LU-1
How it was run: as §1

[22] = test system: A-427
How it was run: as §1

Work on `COc1cc(N2CCC(C(N)=O)CC2)ccc1Nc1nc(N)c(Cl)c(Nc2ccccc2S(=O)(=O)C(C)C)n1` [HG-5-88-01] + CC(C)C[C@H](NC(=O)[C@H](Cc1ccccc1)NC(=O)c1cnccn1)B(O)O [Bortezomib] (partner 0.002 µM) yielded a relative viability ([1]; first compound 0.04 µM) of 0.491, a relative viability ([1]; first compound 0.1265 µM) of 0.477 and a relative viability ([1]; first compound 0.4 µM) of 0.539. For the same compound, the relative viability ([1]; first compound 1.265 µM) was 0.401, the relative viability ([1]; first compound 4 µM) was 0.263 and the relative viability ([2]; first compound 0.04 µM) was 0.99. For the same compound, the relative viability ([2]; first compound 0.1265 µM) was 1.19, the relative viability ([2]; first compound 0.4 µM) was 0.845 and the relative viability ([2]; first compound 1.265 µM) was 0.986. The relative viability ([2]; first compound 4 µM) was 0.765, the relative viability ([3]; first compound 0.04 µM) was 1.34 and the relative viability ([3]; first compound 0.1265 µM) was 1.08. The relative viability ([3]; first compound 0.4 µM) was 0.997, the relative viability ([3]; first compound 1.265 µM) was 0.978 and the relative viability ([3]; first compound 4 µM) was 0.821. For the same compound, the relative viability ([4]; first compound 0.04 µM) was 1.11, the relative viability ([4]; first compound 0.1265 µM) was 1.09 and the relative viability ([4]; first compound 0.4 µM) was 0.972. The relative viability ([4]; first compound 1.265 µM) was 1.04, the relative viability ([4]; first compound 4 µM) was 1.24 and the relative viability ([5]; first compound 0.04 µM) was 0.689. The relative viability ([5]; first compound 0.1265 µM) was 0.924, the relative viability ([5]; first compound 0.4 µM) was 0.769 and the relative viability ([5]; first compound 1.265 µM) was 0.643. The relative viability ([5]; first compound 4 µM) was 0.388, the relative viability ([6]; first compound 0.04 µM) was 0.954 and the relative viability ([6]; first compound 0.1265 µM) was 1.02. It also gave a relative viability ([6]; first compound 0.4 µM) of 0.91, a relative viability ([6]; first compound 1.265 µM) of 1.12 and a relative viability ([6]; first compound 4 µM) of 0.629. It also gave a relative viability ([7]; first compound 0.04 µM) of 0.363, a relative viability ([7]; first compound 0.1265 µM) of 0.478 and a relative viability ([7]; first compound 0.4 µM) of 0.292. The relative viability ([7]; first compound 1.265 µM) was 0.255, the relative viability ([7]; first compound 4 µM) was 0.345 and the relative viability ([8]; first compound 0.04 µM) was 1.07. It also gave a relative viability ([8]; first compound 0.1265 µM) of 1.05, a relative viability ([8]; first compound 0.4 µM) of 1.06 and a relative viability ([8]; first compound 1.265 µM) of 1.14. For the same compound, the relative viability ([8]; first compound 4 µM) was 0.472, the relative viability ([9]; first compound 0.04 µM) was 1.16 and the relative viability ([9]; first compound 0.1265 µM) was 0.897. The relative viability ([9]; first compound 0.4 µM) was 0.837, the relative viability ([9]; first compound 1.265 µM) was 0.955 and the relative viability ([9]; first compound 4 µM) was 0.579. The relative viability ([10]; first compound 0.04 µM) was 1.02, the relative viability ([10]; first compound 0.1265 µM) was 0.995 and the relative viability ([10]; first compound 0.4 µM) was 0.913. It also gave a relative viability ([10]; first compound 1.265 µM) of 1.01, a relative viability ([10]; first compound 4 µM) of 1.01 and a relative viability ([11]; first compound 0.04 µM) of 0.684. The relative viability ([11]; first compound 0.1265 µM) was 0.732, the relative viability ([11]; first compound 0.4 µM) was 0.77 and the relative viability ([11]; first compound 1.265 µM) was 0.76. For the same compound, the relative viability ([11]; first compound 4 µM) was 0.732, the relative viability ([12]; first compound 0.04 µM) was 0.955 and the relative viability ([12]; first compound 0.1265 µM) was 1.17. It also gave a relative viability ([12]; first compound 0.4 µM) of 1.09, a relative viability ([12]; first compound 1.265 µM) of 1.04 and a relative viability ([12]; first compound 4 µM) of 1.28. It also gave a relative viability ([13]; first compound 0.04 µM) of 1.37, a relative viability ([13]; first compound 0.1265 µM) of 1.37 and a relative viability ([13]; first compound 0.4 µM) of 1.21. For the same compound, the relative viability ([13]; first compound 1.265 µM) was 1.14, the relative viability ([13]; first compound 4 µM) was 0.96 and the relative viability ([14]; first compound 0.04 µM) was 1.07. For the same compound, the relative viability ([14]; first compound 0.1265 µM) was 1.06, the relative viability ([14]; first compound 0.4 µM) was 1.04 and the relative viability ([14]; first compound 1.265 µM) was 1.09. It also gave a relative viability ([14]; first compound 4 µM) of 0.931, a relative viability ([15]; first compound 0.04 µM) of 0.875 and a relative viability ([15]; first compound 0.1265 µM) of 0.77. The relative viability ([15]; first compound 0.4 µM) was 0.619, the relative viability ([15]; first compound 1.265 µM) was 0.375 and the relative viability ([15]; first compound 4 µM) was 0.531. For the same compound, the relative viability ([16]; first compound 0.04 µM) was 0.975, the relative viability ([16]; first compound 0.1265 µM) was 0.929 and the relative viability ([16]; first compound 0.4 µM) was 0.941. For the same compound, the relative viability ([16]; first compound 1.265 µM) was 0.817, the relative viability ([16]; first compound 4 µM) was 0.958 and the relative viability ([17]; first compound 0.04 µM) was 1.16. It also gave a relative viability ([17]; first compound 0.1265 µM) of 1.03, a relative viability ([17]; first compound 0.4 µM) of 1.07 and a relative viability ([17]; first compound 1.265 µM) of 1.02. It also gave a relative viability ([17]; first compound 4 µM) of 1.02, a relative viability ([18]; first compound 0.04 µM) of 0.349 and a relative viability ([18]; first compound 0.1265 µM) of 0.452. For the same compound, the relative viability ([18]; first compound 0.4 µM) was 0.381, the relative viability ([18]; first compound 1.265 µM) was 0.344 and the relative viability ([18]; first compound 4 µM) was 0.23. It also gave a relative viability ([19]; first compound 0.04 µM) of 0.977, a relative viability ([19]; first compound 0.1265 µM) of 0.941 and a relative viability ([19]; first compound 0.4 µM) of 0.941. The relative viability ([19]; first compound 1.265 µM) was 0.974, the relative viability ([19]; first compound 4 µM) was 0.621 and the relative viability ([20]; first compound 0.1265 µM) was 0.911. It also gave a relative viability ([20]; first compound 0.4 µM) of 0.885, a relative viability ([20]; first compound 1.265 µM) of 0.92 and a relative viability ([20]; first compound 4 µM) of 0.975. The relative viability ([21]; first compound 0.04 µM) was 0.976, the relative viability ([21]; first compound 0.1265 µM) was 1.2 and the relative viability ([21]; first compound 0.4 µM) was 1.07. For the same compound, the relative viability ([21]; first compound 1.265 µM) was 0.973, the relative viability ([21]; first compound 4 µM) was 0.336 and the relative viability ([22]; first compound 0.04 µM) was 0.968. It also gave a relative viability ([22]; first compound 0.1265 µM) of 0.955, a relative viability ([22]; first compound 0.4 µM) of 1.01 and a relative viability ([22]; first compound 1.265 µM) of 1.05. For the same compound, the relative viability ([22]; first compound 4 µM) was 0.804.
